The source of these data is ChEMBL document CHEMBL1150260 (J Med Chem, 2008).

As usually defined, the Ki is the equilibrium dissociation constant of an inhibitor or competing ligand from its target. The low end stands for higher affinity, the high end for lower affinity. The term Emax denotes the greatest response seen or fitted, relative to the assay's reference. One may read the EC50 as the concentration needed to bring the measured effect to its halfway point. High values mean a need for much substance, low ones an effect from little substance.

For assay [1], the target named is D(3) dopamine receptor (Rattus norvegicus, UniProt P19020). In words: biochemical.
Description: Displacement of [3H]spiperone from rat dopamine D3 receptor expressed in HEK293 cells
Assay [2] addresses D(2) dopamine receptor (Rattus norvegicus, UniProt P61169). In words: biochemical.
Description: Displacement of [3H]spiperone from rat dopamine D2L receptor expressed in HEK293 cells
The species entered for assay [3] is Rattus norvegicus. Put plainly: Selectivity for rat dopamine D3 receptor over rat dopamine D2L receptor.
In assay [4] the target is T1, D(2) dopamine receptor (Homo sapiens, UniProt P14416). Put plainly: Agonist activity at human dopamine D2L receptor expressed in CHO cells assessed as stimulation of [35S]GTPgammaS binding relative to dopamine. In kind it is functional, cell-based. In general terms: GTPγS resists hydrolysis and so accumulates on activated G proteins.
Assay [5] has as its target T1, D(2) dopamine receptor.
Assay [6] relates to Rattus norvegicus. In words: Induction of rotational activity in subcutaneously dosed 6-hydroxydopamine unilaterally lesioned rat assessed as contralateral rotation. Type of assay: functional, organism-based.
Assay [7] deals with D(3) dopamine receptor (Homo sapiens, UniProt P35462).
Description: Agonist activity at human dopamine D3 receptor expressed in mouse ATt-20 cells assessed as stimulation of [35S]GTPgammaS binding
Assay [8] relates to Rattus norvegicus. In words: Induction of rotational activity in 6-hydroxydopamine unilaterally lesioned rat assessed as number of contralateral rotation at 2.5 umol/kg, sc after 8 hrs. In kind it is functional.
Assay [9] relates to Rattus norvegicus. In words: Induction of rotational activity in 6-hydroxydopamine unilaterally lesioned rat assessed as number of contralateral rotation at 5 umol/kg, sc after […]. In kind it is functional.

T1 sequence (P14416 whole entry): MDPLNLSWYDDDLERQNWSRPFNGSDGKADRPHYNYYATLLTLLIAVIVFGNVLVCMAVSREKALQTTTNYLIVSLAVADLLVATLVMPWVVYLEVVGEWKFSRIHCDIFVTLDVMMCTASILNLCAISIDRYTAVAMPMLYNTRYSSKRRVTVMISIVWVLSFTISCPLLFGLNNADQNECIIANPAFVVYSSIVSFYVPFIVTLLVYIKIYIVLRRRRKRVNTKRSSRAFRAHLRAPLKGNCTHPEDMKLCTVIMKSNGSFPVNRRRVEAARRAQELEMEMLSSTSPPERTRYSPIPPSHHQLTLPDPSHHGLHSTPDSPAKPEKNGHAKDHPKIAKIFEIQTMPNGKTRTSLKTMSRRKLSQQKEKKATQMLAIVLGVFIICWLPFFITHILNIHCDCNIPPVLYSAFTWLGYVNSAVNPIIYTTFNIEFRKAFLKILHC
Sequence of D(2) dopamine receptor (Rattus norvegicus, UniProt P61169) (P61169 whole entry): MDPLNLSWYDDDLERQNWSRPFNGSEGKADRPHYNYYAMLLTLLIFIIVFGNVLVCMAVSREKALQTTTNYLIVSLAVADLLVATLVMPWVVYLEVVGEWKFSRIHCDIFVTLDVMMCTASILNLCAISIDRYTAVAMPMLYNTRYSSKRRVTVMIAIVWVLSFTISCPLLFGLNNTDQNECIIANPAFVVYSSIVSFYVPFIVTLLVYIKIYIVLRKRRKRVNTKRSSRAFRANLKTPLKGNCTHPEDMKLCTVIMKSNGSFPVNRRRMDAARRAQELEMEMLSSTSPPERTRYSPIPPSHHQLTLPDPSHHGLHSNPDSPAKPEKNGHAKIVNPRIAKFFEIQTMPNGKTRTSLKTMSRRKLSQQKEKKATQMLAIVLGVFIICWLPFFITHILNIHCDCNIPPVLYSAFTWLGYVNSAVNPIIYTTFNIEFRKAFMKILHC
Sequence of D(3) dopamine receptor (Rattus norvegicus, UniProt P19020) (P19020 whole entry): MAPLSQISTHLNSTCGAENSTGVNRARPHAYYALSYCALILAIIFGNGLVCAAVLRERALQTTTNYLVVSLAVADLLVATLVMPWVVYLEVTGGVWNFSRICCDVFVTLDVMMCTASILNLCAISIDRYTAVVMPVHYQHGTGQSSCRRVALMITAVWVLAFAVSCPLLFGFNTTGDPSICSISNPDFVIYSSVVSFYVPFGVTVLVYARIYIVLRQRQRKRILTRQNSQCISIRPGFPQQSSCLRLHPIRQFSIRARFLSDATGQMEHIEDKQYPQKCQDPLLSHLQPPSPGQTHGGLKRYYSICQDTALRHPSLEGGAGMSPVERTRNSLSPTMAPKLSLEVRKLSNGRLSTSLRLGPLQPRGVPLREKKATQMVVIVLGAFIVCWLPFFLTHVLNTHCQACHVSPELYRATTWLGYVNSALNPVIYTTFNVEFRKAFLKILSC
Sequence of D(3) dopamine receptor (Homo sapiens, UniProt P35462) (P35462 whole entry): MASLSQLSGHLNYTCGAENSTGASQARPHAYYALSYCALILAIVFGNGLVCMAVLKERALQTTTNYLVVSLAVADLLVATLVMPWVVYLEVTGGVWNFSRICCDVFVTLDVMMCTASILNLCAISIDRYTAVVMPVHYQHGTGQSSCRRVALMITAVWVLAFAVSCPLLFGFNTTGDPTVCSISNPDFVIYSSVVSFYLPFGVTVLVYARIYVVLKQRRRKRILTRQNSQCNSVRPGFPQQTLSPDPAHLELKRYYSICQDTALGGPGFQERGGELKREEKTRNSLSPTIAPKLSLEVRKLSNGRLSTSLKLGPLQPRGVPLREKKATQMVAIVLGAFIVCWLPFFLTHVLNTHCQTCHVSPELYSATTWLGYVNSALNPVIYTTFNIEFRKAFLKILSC

As for `CCCN(CCN1CCN(c2ccccc2)CC1)C1CCc2ccc(O)cc2C1` (stereo not drawn), the Ki at D(3) dopamine receptor [1] came to 1.56 nM; at D(2) dopamine receptor [2], 142 nM. In addition, the Ratio Ki in the assay filed under Rattus norvegicus [3] worked out at 91.

Turning to `CCCN(CCN1CCN(c2ccccc2)CC1)C1CCc2nnsc2C1` (stereo not drawn), the Ki at D(3) dopamine receptor [1] was 160 nM; on D(2) dopamine receptor [2], 746 nM. Moreover, in the assay filed under Rattus norvegicus [3], the Ratio Ki was found to be 4.66.

On to `CCCN(CCN1CCN(c2ccccc2)CC1)C1CCc2nn[se]c2C1` (stereo not drawn), for which the inhibition constant Ki at D(3) dopamine receptor [1] amounted to 40.7 nM; at D(2) dopamine receptor [2], 189 nM. For the same compound, in the assay filed under Rattus norvegicus [3], the Ratio Ki worked out at 4.64.

For `CCCN(CCN1CCN(c2ccccc2)CC1)C1CCc2c[nH]nc2C1` (stereo not drawn), the Ki on D(3) dopamine receptor [1] stood at 188 nM; on D(2) dopamine receptor [2] it was 2570 nM. Besides, in the assay filed under Rattus norvegicus [3], the Ratio Ki stood at 13.7.

With `CCCN(CCCCN1CCN(c2ccccc2)CC1)C1CCc2nc(N)sc2C1` (stereo not drawn), the Ki on D(3) dopamine receptor [1] was determined as 12.4 nM; on D(2) dopamine receptor [2], 769 nM. The Ratio Ki in the assay filed under Rattus norvegicus [3] amounted to 62.

For `C#CCN(CCN1CCN(c2cccc(Cl)c2Cl)CC1)C1CCc2nc(N)sc2C1` (stereo not drawn), the Ki at D(3) dopamine receptor [1] came to 7.1 nM; at D(2) dopamine receptor [2], 34.9 nM. Also, the Ratio Ki in the assay filed under Rattus norvegicus [3] is 4.92.

On to `CCCN(CCN1CCN(c2ccccc2)CC1)C1CCc2[nH]ncc2C1` (stereo not drawn), for which the Ki at D(3) dopamine receptor [1] was found to be 46.7 nM; at D(2) dopamine receptor [2], 1830 nM. Moreover, the Ratio Ki in the assay listed under Rattus norvegicus [3] is 39.3.

For the compound `CCCN(CCN1CCN(c2ccccc2)CC1)C1CCc2oncc2C1` (stereo not drawn), the Ki on D(3) dopamine receptor [1] stood at 155 nM; on D(2) dopamine receptor [2], 915 nM. Also, in the assay filed under Rattus norvegicus [3], the Ratio Ki came to 5.9.

Consider `CCCN(CCN1CCN(c2ccccc2)CC1)C1CCc2nocc2C1` (stereo not drawn), for which the Ki at D(3) dopamine receptor [1] stood at 254 nM; at D(2) dopamine receptor [2], 813 nM. For the same compound, the Ratio Ki in the assay filed under Rattus norvegicus [3] came to 3.2.

Regarding `C#CCN(CCN1CCN(c2ccccc2OC)CC1)C1CCc2nc(N)sc2C1` (stereo not drawn), the Ki at D(3) dopamine receptor [1] came out at 34.8 nM; on D(2) dopamine receptor [2] it was 81.2 nM. In addition, the Ratio Ki in the assay listed under Rattus norvegicus [3] stood at 2.33.

In the case of `CCCN(CCC)C1CCc2ccc(O)cc2C1` (stereo not drawn), the Emax at D(2) dopamine receptor [4] worked out at 61.4%.

`CCCN(CCN1CCN(c2ccccc2)CC1)C1CCc2nc(N)sc2C1` (single isomer, unassigned; (+)) [listing 1 of 2 here]: the Ki came to 44 nM on D(3) dopamine receptor [1] and 1980 nM at D(2) dopamine receptor [2].

With `CCCN(CCN1CCN(c2ccccc2OC)CC1)C1CCc2nc(N)sc2C1` (single isomer, unassigned; (+)) [listing 1 of 2 here], the Ki at D(3) dopamine receptor [1] is 101 nM; at D(2) dopamine receptor [2], 243 nM.

Regarding `CCCN(CCN1CCN(c2ccccc2)CC1)C1CCc2nc(N)sc2C1` (single isomer, unassigned; (+)) [listing 2 of 2 here], the Ratio Ki in the assay filed under Rattus norvegicus [3] is 45.

As to `CCCN(CCN1CCN(c2ccccc2OC)CC1)C1CCc2nc(N)sc2C1` (single isomer, unassigned; (+)) [listing 2 of 2 here], the Ratio Ki in the assay filed under Rattus norvegicus [3] was 2.4.

With `CCCN(CCN1CCN(c2ccc(-c3ccccc3)cc2)CC1)C1CCc2nc(N)sc2C1` (single isomer, unassigned; (-)), the values for the EC50 at D(2) dopamine receptor [5] and on D(3) dopamine receptor [7] were 19.9 nM and 0.085 nM, respectively. Besides, the Ki on D(3) dopamine receptor [1] was determined as 0.92 nM; on D(2) dopamine receptor [2], 264 nM. Further, the Activity entry in the assay with Rattus norvegicus [6] was “Dose-dependent effect”; with Rattus norvegicus [8] it was 2092; in the assay on Rattus norvegicus [9] it was 3866. The Emax on D(2) dopamine receptor [4] is 119%. The Ratio Ki in the assay listed under Rattus norvegicus [3] was found to be 253.

Regarding `CCCN(CCN1CCN(c2ccccc2OC)CC1)C1CCc2nc(N)sc2C1` (single isomer, unassigned; (-)) [listing 1 of 2 here], the Ki turned out to be 7.01 nM at D(3) dopamine receptor [1] and 288 nM on D(2) dopamine receptor [2].

As for `CCCN(CCN1CCN(c2ccccc2OC)CC1)C1CCc2nc(N)sc2C1` (single isomer, unassigned; (-)) [listing 2 of 2 here], the Ratio Ki in the assay filed under Rattus norvegicus [3] stood at 41.1.

As to `CCCN(CCN1CCN(c2ccccc2)CC1)C1CCc2nc(N)sc2C1` (stereo in doubt; 6a) [listing 1 of 2 here], the Ki at D(3) dopamine receptor [1] came to 5.96 nM; on D(2) dopamine receptor [2], 639 nM.

For `CCCN(CCN1CCN(c2ccccc2)CC1)C1CCc2nc(N)sc2C1` (stereo in doubt; 6a) [listing 2 of 2 here], the Ratio Ki in the assay filed under Rattus norvegicus [3] amounted to 107.

As for `CCCN(CCN1CCN(c2ccccc2OC)CC1)C1CCc2nc(N)sc2C1` (stereo in doubt; 6b) [listing 1 of 2 here], the Ki at D(3) dopamine receptor [1] was determined as 5.09 nM; at D(2) dopamine receptor [2], 166 nM.

In the case of `CCCN(CCN1CCN(c2ccccc2OC)CC1)C1CCc2nc(N)sc2C1` (stereo in doubt; 6b) [listing 2 of 2 here], the Ratio Ki in the assay filed under Rattus norvegicus [3] worked out at 32.6.

On to `CCCN(CCN1CCN(c2cccc(Cl)c2Cl)CC1)C1CCc2nc(N)sc2C1` (stereo in doubt; 6c) [listing 1 of 2 here], for which the Ki at D(3) dopamine receptor [1] turned out to be 1.82 nM; on D(2) dopamine receptor [2], 68.4 nM.

Turning to `CCCN(CCN1CCN(c2cccc(Cl)c2Cl)CC1)C1CCc2nc(N)sc2C1` (stereo in doubt; 6c) [listing 2 of 2 here], the Ratio Ki in the assay listed under Rattus norvegicus [3] was determined as 37.6.

Turning to `CCCN(CCN1CCN(c2cccc(Cl)c2Cl)CC1)C1CCc2nc(N)sc2C1` (stereo in doubt; (+)-33) [listing 1 of 2 here], the Ki is 12 nM at D(3) dopamine receptor [1] and 44.2 nM at D(2) dopamine receptor [2].

For `CCCN(CCN1CCN(c2cccc(Cl)c2Cl)CC1)C1CCc2nc(N)sc2C1` (stereo in doubt; (+)-33) [listing 2 of 2 here], the Ratio Ki in the assay filed under Rattus norvegicus [3] was found to be 3.68.

As to `CCCN(CCN1CCN(c2ccccc2)CC1)C1CCc2nc(N)sc2C1` (stereo in doubt; (-)-31) [listing 1 of 2 here], the Ki at D(3) dopamine receptor [1] was found to be 4.15 nM; at D(2) dopamine receptor [2] it was 243 nM.

As to `CCCN(CCN1CCN(c2ccccc2)CC1)C1CCc2nc(N)sc2C1` (stereo in doubt; (-)-31) [listing 2 of 2 here], the Ratio Ki in the assay listed under Rattus norvegicus [3] came out at 58.6.

`CCCN(CCN1CCN(c2cccc(Cl)c2Cl)CC1)C1CCc2nc(N)sc2C1` (stereo in doubt; (-)-33) [listing 1 of 2 here]: the EC50 on D(2) dopamine receptor [5] was 13.4 nM; at D(3) dopamine receptor [7], 0.06 nM. For the same compound, the Ki at D(3) dopamine receptor [1] came to 1.8 nM; at D(2) dopamine receptor [2], 56.8 nM. Also, the Activity in the assay with Rattus norvegicus [8] is reported as 2281; with Rattus norvegicus [9], 2766.

Take `CCCN(CCN1CCN(c2cccc(Cl)c2Cl)CC1)C1CCc2nc(N)sc2C1` (stereo in doubt; (-)-33) [listing 2 of 2 here]: in the assay on Rattus norvegicus [6], the Activity result is “Dose-dependent effect”. In addition, the Emax on D(2) dopamine receptor [4] stood at 78.8%. In addition, the Ratio Ki in the assay filed under Rattus norvegicus [3] came out at 31.6.
